Read-outs that look alike come from different tables or passages of the source.
Assays:
[1] = tested on: Sprague-Dawley rats; assay: Kainic acid induced seizures in rats; format: in vivo, rat; design: key to Seizures Severity Mean ± SD (grade 0 to IV): seizure grade 0 = no response to IV = status epilepticus; details: 20 μmoles/kg IP; for Seizures Severity Mean ± SD (grade 0 to IV) / Seizures Mean ± SD (1 = yes, 0 = no): KA 15 mg/kg i.p.; for Seizures Mean ± SD (1 = yes, 0 = no): 2 hours; for change in vivo at 20 µmol/kg: Rattus norvegicus, 2 h, vs DMSO control
Method: Formulation of kainic acid was performed by NTS as a stock solution by reconstituting kainic acid with (100%) saline that was stored at 4° C. Vehicle control received saline solution. […] The research investigators were blinded to the treatment groups.
Solutions were prepared fresh daily just prior to use; dosing of all 10 rats with any given compound occurred on a single day after preparing the dosing solution. […] Unused remaining dosing solutions were stored frozen.
Animals were maintained in a temperature- and light-controlled environment in accord with the principles and procedures of the National Institutes of Health Guidelines for Care and Use of Laboratory Animals. Seizures were induced in adult, male Sprague-Dawley rats (260-300 g) by injection of KA (15 mg/kg, i.p.). In addition, animals were injected with test compounds following kainic acid to determine the effects on protection from epilepsy. Animals were monitored behaviorally for seizures for 2 hours after injection.
Seizure activity was initially characterized as either yes (1) or no (0) within a 2 hour period following injection of KA. A seizure severity grade was assigned based on the maximal response achieved on a scale from 0 to IV as follows: 0, no response; I, single limb clonus and scratching; II, multiple limb clonus and staggering gait; […], limb clonus, tonic extension of limbs and falling; IV, continuous grade III seizures for longer than 30 min (status epilepticus).
The results were expressed as the mean±standard deviation (SD). The significance of difference in the epileptic data was analyzed using a one-way analysis of variance (ANOVA) followed by Fisher's post hoc test. Repeated-measures ANOVA were computed on the monitoring data and the significance of the difference among groups were evaluated by Fisher's post hoc test.
All groups were subjected to kainic acid.
The induction of seizures in rats with kainic acid was determined as either yes seizures (1) or no seizures (0).

[2] = target: T1, Na+K+Cl− co-transporter (Rattus norvegicus, UniProt E9PTX9); assay: Na+K+Cl− cotransporter assay, 86Rb uptake in A7r5 cells; format: cell-based; details: 10 minutes at 37° C.; for inhibition at 10 µM: read-out: % Inhibition of Control Values; for remaining activity at 10 µM: read-out: % of Control Value; for % Inhibition of Control Values / % of Control Value: 10 μM
T1 construct: endogenous in cells; host or cells: A7r5 cells
T1 sequence (E9PTX9 1-1203): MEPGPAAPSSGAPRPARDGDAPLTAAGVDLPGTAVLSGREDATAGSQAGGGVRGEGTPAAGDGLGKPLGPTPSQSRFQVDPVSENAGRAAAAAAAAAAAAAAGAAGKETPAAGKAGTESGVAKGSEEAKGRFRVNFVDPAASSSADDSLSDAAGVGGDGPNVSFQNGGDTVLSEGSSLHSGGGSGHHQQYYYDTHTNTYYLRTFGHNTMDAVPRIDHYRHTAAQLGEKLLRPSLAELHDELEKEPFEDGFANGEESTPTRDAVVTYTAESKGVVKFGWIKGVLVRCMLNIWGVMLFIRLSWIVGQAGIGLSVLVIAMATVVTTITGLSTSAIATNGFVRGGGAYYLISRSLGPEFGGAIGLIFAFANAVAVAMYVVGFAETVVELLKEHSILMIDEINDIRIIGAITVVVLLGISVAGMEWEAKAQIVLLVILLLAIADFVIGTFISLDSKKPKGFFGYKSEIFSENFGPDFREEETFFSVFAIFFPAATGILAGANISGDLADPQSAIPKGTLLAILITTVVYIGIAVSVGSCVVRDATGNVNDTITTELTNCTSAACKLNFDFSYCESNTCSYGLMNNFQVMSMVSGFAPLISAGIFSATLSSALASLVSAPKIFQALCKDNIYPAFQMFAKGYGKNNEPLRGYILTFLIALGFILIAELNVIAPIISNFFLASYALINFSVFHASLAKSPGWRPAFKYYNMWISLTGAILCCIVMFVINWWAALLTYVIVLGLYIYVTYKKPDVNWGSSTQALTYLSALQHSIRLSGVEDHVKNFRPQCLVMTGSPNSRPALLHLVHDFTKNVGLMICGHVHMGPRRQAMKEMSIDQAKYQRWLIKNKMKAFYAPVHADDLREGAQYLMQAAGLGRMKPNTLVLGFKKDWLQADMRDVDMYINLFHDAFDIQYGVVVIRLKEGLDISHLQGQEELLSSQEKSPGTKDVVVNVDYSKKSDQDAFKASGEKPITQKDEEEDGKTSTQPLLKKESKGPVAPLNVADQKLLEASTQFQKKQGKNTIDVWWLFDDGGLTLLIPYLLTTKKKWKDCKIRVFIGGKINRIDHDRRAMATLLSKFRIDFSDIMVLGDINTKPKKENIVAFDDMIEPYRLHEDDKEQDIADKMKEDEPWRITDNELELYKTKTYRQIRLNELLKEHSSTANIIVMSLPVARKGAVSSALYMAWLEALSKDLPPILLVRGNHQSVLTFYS
Method: Na^+K^+Cl^− co-transporter activity was measured in vitro in A7r5 cells by measuring their uptake of ^86Rb (0.2 μCi) in 10 minutes at 37° C. as detected by scintillation counting. See Chassande, et al. (1988) “The Na^+/K^+/Cl^− Cotransport in C6 glioma cells. Properties and role in volume regulation.” Eur. J. Biochem. 171: 425433.

[3] = read-out: Percent reduction in Seizures
[4] = read-out: Percent reduction in Seizures Severity

% Inhibition of Control Values [2] | % of Control Value [2] | Compound | other results
23% | 77.3% | CCCCNc1cc(C(=O)NN2CCCCC2)cc(S(N)(=O)=O)c1Oc1ccccc1 [NTP-2023, N-Piperidinyl 3-Aminosulfonyl-5-N-butylamino-4-phenoxybenzamide] | 
16% | 84.4% | CCCCCCCCCCOC(=O)c1cc(NCCCC)c(Oc2ccccc2)c(S(N)(=O)=O)c1 [NTP-2028, n-Decyl Aminosulfonyl-5-N-butylamino-4-phenoxybenzoate] | 
12% | 88.4% | CCCCNc1cc(C(=O)OCC=C(C)C)cc(S(N)(=O)=O)c1Oc1ccccc1 [NTP-2029, 3-Methylbut-2-enyl Aminosulfonyl-5-N-butylamino-4-phenoxybenzoate] | 
7% | 92.6% | CCCCNc1cc(C(=O)OCc2ccc(OC)cc2)cc(S(N)(=O)=O)c1Oc1ccccc1 [NTP-2031, 4-Methoxybenzyl Aminosulfonyl-5-N-butylamino-4-phenoxybenzoate] | 
21% | 78.9% | CCCCNc1cc(C(=O)OCCCCc2ccccc2)cc(S(N)(=O)=O)c1Oc1ccccc1 [NTP-2034, 4-phenylbutyl 3-Aminosulfonyl-5-N-butylamino-4-phenoxybenzoate] | 
26% | 74.5% | CCCCNc1cc(C(=O)O[C@H](C)c2ccccc2)cc(S(N)(=O)=O)c1Oc1ccccc1 [NTP-2035, (R)-α-Methylbenzyl 3-Aminosulfonyl-5-N-butylamino-4-phenoxybenzoate] | 
20% | 80.1% | CCCCNc1cc(C(=O)O[C@@H](C)c2ccccc2)cc(S(N)(=O)=O)c1Oc1ccccc1 [NTP-2036, (S)-α-Methylbenzyl 3-Aminosulfonyl-5-N-butylamino-4-phenoxybenzoate] | 

The remaining lines, values behind:

Compound | % Inhibition of Control Values [2] | % of Control Value [2] | other results
OC[C@@H](O)[C@@H](O)[C@H](O)[C@H](O)CO [Mannitol, reference compound] |  |  | Seizures Severity Mean ± SD (grade 0 to IV) [1]: 0.5000 ± 0.7071; Seizures Mean ± SD (1 = yes, 0 = no) [1]: 0.4000 ± 0.5164; change in vivo at 20 µmol/kg [1, 3]: -55.5%; change in vivo at 20 µmol/kg [1, 4]: -79.2%
CCCCNc1cc(C(=O)N(CC)CC)cc(S(N)(=O)=O)c1Oc1ccccc1 [NTP-2007, N,N-Diethyl 3-Aminosulfonyl-5-butylamino-4-phenoxybenzamide] |  |  | inhibition at 10 µM [2]: 30%; remaining activity at 10 µM [2]: 70.4%; Seizures Severity Mean ± SD (grade 0 to IV) [1]: 1.500 ± 1.354; Seizures Mean ± SD (1 = yes, 0 = no) [1]: 0.6000 ± 0.5164; change in vivo at 20 µmol/kg [1, 3]: -33.3%; change in vivo at 20 µmol/kg [1, 4]: -37.5%
CCCCNc1cc(C(=O)N(C)C)cc(S(N)(=O)=O)c1Oc1ccccc1 [NTP-2015, N,N-Dimethyl 3-Aminosulfonyl-5-N-butylamino-4-phenoxybenzamide] |  |  | Seizures Severity Mean ± SD (grade 0 to IV) [1]: 1.100 ± 1.197; Seizures Mean ± SD (1 = yes, 0 = no) [1]: 0.5000 ± 0.5270; change in vivo at 20 µmol/kg [1, 3]: -44.4%; change in vivo at 20 µmol/kg [1, 4]: -54.2%
CCCCNc1cc(C(=O)NC)cc(S(N)(=O)=O)c1Oc1ccccc1 [NTP-2016, N-Methyl 3-Aminosulfonyl-5-N-butylamino-4-phenoxybenzamide] | −7% | 107.2% | 
CCCCNc1cc(C(=O)NCc2ccccc2)cc(S(N)(=O)=O)c1Oc1ccccc1 [NTP-2018, N-Benzyl 3-Aminosulfonyl-5-N-butylamino-4-phenoxybenzamide] | 13% | 87.3% | 
CCCCNc1cc(C(=O)N[C@H](C)c2ccccc2)cc(S(N)(=O)=O)c1Oc1ccccc1 [NTP-2020, (R)-α-Methylbenzyl 3-Aminosulfonyl-5-N-butylamino-4-phenoxybenzamide] | 7% | 93.5% | 
CCCCNc1cc(C(=O)N[C@@H](C)c2ccccc2)cc(S(N)(=O)=O)c1Oc1ccccc1 [NTP-2021, (S)-α-Methylbenzyl 3-Aminosulfonyl-5-N-butylamino-4-phenoxybenzamide] | 27% | 72.6% | 
CCCCNc1cc(C(=O)N2CCCC2)cc(S(N)(=O)=O)c1Oc1ccccc1 [NTP-2022, N-Pyrrolidinyl Aminosulfonyl-5-N-butylamino-4-phenoxybenzamide] |  |  | inhibition at 10 µM [2]: 7%; remaining activity at 10 µM [2]: 92.7%; Seizures Severity Mean ± SD (grade 0 to IV) [1]: 1.100 ± 1.101; Seizures Mean ± SD (1 = yes, 0 = no) [1]: 0.6000 ± 0.5164; change in vivo at 20 µmol/kg [1, 3]: -33.3%; change in vivo at 20 µmol/kg [1, 4]: -54.2%
CCCCNc1cc(C(=O)NCCCN(C)C)cc(S(N)(=O)=O)c1Oc1ccccc1 [NTP-2025] |  |  | inhibition at 10 µM [2]: -27%; remaining activity at 10 µM [2]: 127%

Reference: patent US9682928B2 (NeuroPro Therapeutics, Inc., priority 2009, dated 2017)
